Laboratory results reported in PubChem BioAssay (NCI).
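48-hour exposure; five concentrations; linearly interpolated endpoints. At the TGI there is no net growth.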

Legend:
Assay in all cases: growth of human tumour cells (NCI), 48 h
ACHN renal = test system: ACHN renal
EKVX NSCLC = test system: EKVX NSCLC
HOP-62 NSCLC = test system: HOP-62 NSCLC
LOX IMVI melanoma = test system: LOX IMVI melanoma
OVCAR-3 ovarian = test system: OVCAR-3 ovarian
OVCAR-4 ovarian = test system: OVCAR-4 ovarian
RPMI-8226 leukemia = test system: RPMI-8226 leukemia
SK-MEL-5 melanoma = test system: SK-MEL-5 melanoma
SN12C renal = test system: SN12C renal
SNB-19 CNS = test system: SNB-19 CNS
SW-620 colon = test system: SW-620 colon
UACC-62 melanoma = test system: UACC-62 melanoma

| SMILES | TGI (ACHN renal) [µM] | TGI (EKVX NSCLC) [µM] | TGI (HOP-62 NSCLC) [µM] | TGI (LOX IMVI melanoma) [µM] | TGI (OVCAR-3 ovarian) [µM] | TGI (OVCAR-4 ovarian) [µM] | TGI (RPMI-8226 leukemia) [µM] | TGI (SK-MEL-5 melanoma) [µM] | TGI (SN12C renal) [µM] | TGI (SNB-19 CNS) [µM] | TGI (SW-620 colon) [µM] | TGI (UACC-62 melanoma) [µM] |
| --- | --- | --- | --- | --- | --- | --- | --- | --- | --- | --- | --- | --- |
| COc1ccc(-n2c(Cn3nnc(-c4cccnc4)n3)nn(C3OC(COC(=O)c4ccccc4)C(OC(=O)c4ccccc4)C3OC(=O)c3ccccc3)c2=S)cc1 (stereo not given) | > 100 | > 100 | > 100 | > 100 | > 100 | > 100 | > 100 | > 100 | > 100 | > 100 | > 100 | > 100 |
| CN1c2ccccc2C(=O)NC12CCNCC2 | > 100 | > 100 | > 100 | > 100 | – | > 100 | > 100 | > 100 | – | > 100 | > 100 | > 100 |
| O=C(CCN1CCC(CCO)CC1)Nc1ccc2c(c1)C(=O)c1ccc(NC(=O)CCN3CCC(CCO)CC3)cc1C2=O | > 100 | > 100 | 37.5 | 64 | 24.7 | 63.2 | 88.1 | > 100 | > 100 | 68.8 | 29.1 | 38.4 |
| Cc1ccc(C(=O)N2CCCCC2)cc1N=NN(C)C | > 100 | > 100 | > 100 | > 100 | > 100 | > 100 | > 100 | > 100 | > 100 | > 100 | > 100 | > 100 |
| O=C1CC(C(OCc2ccccc2)C(OCc2ccccc2)C(OCc2ccccc2)C(COCc2ccccc2)OCc2ccccc2)CC(=O)N1 (stereo not given) | > 100 | > 100 | > 100 | > 100 | > 100 | > 100 | > 100 | > 100 | > 100 | > 100 | > 100 | – |
| O=C(c1ccccc1)C(Nc1ccc2ccccc2c1)c1ccccc1 (stereo not given) | > 100 | > 100 | > 100 | > 100 | 78.2 | > 100 | 33.7 | 36 | > 100 | > 100 | > 100 | > 100 |
| Cc1[nH]c2nc3c(ncn3COCCO)c(=O)n2c1C(c1ccccc1)(c1ccccc1)c1ccccc1 | 35.5 | 41.8 | 44.3 | 27.8 | 15.4 | 30.4 | 45.5 | 29.4 | 33 | 28.6 | > 56.4 | 24 |
| CCCCCCCCCCCCCCCC(=O)Nc1ccn(C2CCC(COP(=O)(O)OCC3OC(n4cc(F)c(=O)[nH]c4=O)CC3OC(C)=O)O2)c(=O)n1 (stereo not given) | > 100 | > 100 | 37.7 | 39.8 | 59 | > 86.5 | 52.9 | 26.9 | > 73.7 | 35.2 | > 52.5 | 61.6 |
| CC(C)CC(NC=O)C(=O)NC(Cc1ccccc1)NC(=O)CNC(=O)C(C)NC(=O)C(N)Cc1ccc(O)cc1 (stereo not given) | > 100 | > 100 | > 100 | > 100 | > 100 | > 100 | > 100 | > 100 | > 100 | > 100 | > 100 | > 100 |
